The source of these data is ChEMBL document CHEMBL2401657, “Discovery of new PPARγ agonists based on arylopeptoids” (Bioorg Med Chem Lett, 2013).

For series [1], the target named is T1, Peroxisome proliferator-activated receptor gamma (Homo sapiens) (UniProt P37231).
T1 sequence (whole entry): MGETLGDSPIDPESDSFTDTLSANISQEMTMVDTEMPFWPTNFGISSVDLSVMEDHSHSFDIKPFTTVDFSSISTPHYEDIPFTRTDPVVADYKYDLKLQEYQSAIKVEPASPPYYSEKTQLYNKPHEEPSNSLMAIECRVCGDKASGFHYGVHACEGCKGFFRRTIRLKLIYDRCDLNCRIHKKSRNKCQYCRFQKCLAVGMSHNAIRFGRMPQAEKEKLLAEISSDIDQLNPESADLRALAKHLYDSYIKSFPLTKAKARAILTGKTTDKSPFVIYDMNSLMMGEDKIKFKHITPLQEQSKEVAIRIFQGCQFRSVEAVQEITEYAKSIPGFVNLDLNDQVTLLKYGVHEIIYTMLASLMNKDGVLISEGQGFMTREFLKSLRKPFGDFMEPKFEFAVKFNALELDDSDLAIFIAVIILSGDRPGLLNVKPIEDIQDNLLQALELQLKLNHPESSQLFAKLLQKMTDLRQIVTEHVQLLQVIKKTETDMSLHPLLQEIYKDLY
The experiment in a line: Transactivation of human PPARgamma LBD transfected in mouse embryo fibroblasts at 100 uM after 18 hrs by Gal4-responsive luciferase reporter gene assay relative to vehicle-treated control. (A reporter such as luciferase makes a cellular process visible.)

The target in series [2] is Free fatty acid receptor 1 (Homo sapiens) (UniProt O14842). Put plainly: Antagonist activity at FFAR1 (unknown origin) assessed as inhibition of GW9508-induced calcium mobilization at 10 uM preincubated for 20 mins followed by GW9508 induction by fluorescence assay. Type of series: functional.
Series [3] has as its target T1, Peroxisome proliferator-activated receptor gamma (Homo sapiens). Put plainly: Transactivation of human PPARgamma LBD transfected in mouse embryo fibroblasts at 100 uM after 18 hrs by Gal4-responsive luciferase reporter gene assay relative to rosiglitazone.
The target of series [4] is Free fatty acid receptor 1 (Homo sapiens) (UniProt O14842). Put plainly: Agonist activity at FFAR1 (unknown origin) assessed as induction of calcium mobilization at 10 uM by fluorescence assay. Type of series: functional. Background: Calcium assays in cells follow changes in intracellular calcium, usually with a dye or a luminescent sensor.
Series [5] is described as follows: Cytotoxicity against mouse embryo fibroblasts. The conditions noted are these: fibroblast. Type of series: cell-based.
Series [6] concerns the target T2, Peroxisome proliferator-activated receptor alpha (Homo sapiens) (UniProt Q07869).
T2 sequence (whole entry): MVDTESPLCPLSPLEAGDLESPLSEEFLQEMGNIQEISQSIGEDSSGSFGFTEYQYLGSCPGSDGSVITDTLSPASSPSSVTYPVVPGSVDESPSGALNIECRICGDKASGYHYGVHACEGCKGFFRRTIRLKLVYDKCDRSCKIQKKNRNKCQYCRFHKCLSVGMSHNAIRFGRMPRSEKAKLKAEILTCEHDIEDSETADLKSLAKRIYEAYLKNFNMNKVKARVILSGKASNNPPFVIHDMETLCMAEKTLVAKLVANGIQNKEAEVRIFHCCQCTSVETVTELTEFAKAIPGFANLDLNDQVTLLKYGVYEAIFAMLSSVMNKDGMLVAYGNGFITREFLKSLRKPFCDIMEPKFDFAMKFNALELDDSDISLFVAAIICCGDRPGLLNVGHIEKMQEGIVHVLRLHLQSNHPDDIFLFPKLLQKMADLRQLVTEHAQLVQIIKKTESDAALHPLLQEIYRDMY
Put plainly: Transactivation of PPARalpha (unknown origin) relative to control.

The target of series [7] is T3, Peroxisome proliferator-activated receptor gamma (Homo sapiens, UniProt P37231).
T3 sequence (P37231 whole entry): T1 sequence (whole entry)
The experiment in a line: Binding affinity to GST-tagged human PPARgamma LBD by ligand displacement assay.

Series [8] has as its target T4, Peroxisome proliferator-activated receptor delta (Homo sapiens) (UniProt Q03181).
T4 sequence (whole entry): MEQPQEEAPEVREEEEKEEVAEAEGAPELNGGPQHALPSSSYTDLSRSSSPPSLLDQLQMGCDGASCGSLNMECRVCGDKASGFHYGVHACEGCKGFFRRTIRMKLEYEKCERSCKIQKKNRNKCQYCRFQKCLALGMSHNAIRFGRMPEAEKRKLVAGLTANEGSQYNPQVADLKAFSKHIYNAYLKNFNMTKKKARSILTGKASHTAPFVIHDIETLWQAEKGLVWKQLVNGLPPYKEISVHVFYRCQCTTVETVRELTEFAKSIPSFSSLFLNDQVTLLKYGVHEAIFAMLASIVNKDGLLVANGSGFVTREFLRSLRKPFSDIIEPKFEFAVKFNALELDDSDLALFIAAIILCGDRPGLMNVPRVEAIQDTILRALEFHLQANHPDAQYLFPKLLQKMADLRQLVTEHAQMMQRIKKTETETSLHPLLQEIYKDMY
Put plainly: Transactivation of PPARdelta (unknown origin) relative to control.

The target of series [9] is T5, Retinoic acid receptor RXR-alpha (Homo sapiens) (UniProt P19793).
T5 sequence (whole entry): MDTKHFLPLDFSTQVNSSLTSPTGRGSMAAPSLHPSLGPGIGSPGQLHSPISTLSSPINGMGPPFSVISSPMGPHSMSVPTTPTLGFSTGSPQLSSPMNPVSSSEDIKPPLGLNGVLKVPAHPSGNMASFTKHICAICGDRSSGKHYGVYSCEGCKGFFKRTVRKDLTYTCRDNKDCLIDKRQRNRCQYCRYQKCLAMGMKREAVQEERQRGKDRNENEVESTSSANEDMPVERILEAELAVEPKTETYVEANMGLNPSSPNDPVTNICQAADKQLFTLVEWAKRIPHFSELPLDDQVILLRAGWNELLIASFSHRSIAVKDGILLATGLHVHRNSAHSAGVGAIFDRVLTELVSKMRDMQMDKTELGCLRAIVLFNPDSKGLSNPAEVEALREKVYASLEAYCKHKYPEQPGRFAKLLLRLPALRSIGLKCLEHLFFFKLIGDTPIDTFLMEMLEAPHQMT
Put plainly: Transactivation of RXRalpha (unknown origin) relative to control.

The source made the active and inactive calls. The rule behind the calls is not given here. A value given as a limit tells only on which side of the number the result lay.

Chain of Free fatty acid receptor 1 (Homo sapiens) (O14842 whole entry, the tested form may be a part): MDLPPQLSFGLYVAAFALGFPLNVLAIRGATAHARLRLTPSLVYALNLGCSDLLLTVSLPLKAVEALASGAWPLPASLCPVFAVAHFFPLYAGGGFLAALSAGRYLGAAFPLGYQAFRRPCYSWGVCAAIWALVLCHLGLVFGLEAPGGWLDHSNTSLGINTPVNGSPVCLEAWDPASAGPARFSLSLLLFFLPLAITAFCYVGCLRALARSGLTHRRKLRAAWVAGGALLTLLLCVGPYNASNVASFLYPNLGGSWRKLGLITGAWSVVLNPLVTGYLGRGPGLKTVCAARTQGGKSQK

Compound `CCN(Cc1ccc(C(=O)N(Cc2ccc(CCC(=O)O)cc2)C(C)C)cc1)C(=O)c1ccccc1` yielded a fold change (FC) in series [1] of 6.9. Also, the inhibition entry in series [2] is “inactive”. Also, the Activity was 11.6% in series [3] and “Non-toxic” in [5]. The result in series [4] was inactive.

With `CCN(Cc1cccc(C(=O)NCc2ccc(CCC(=O)O)cc2)c1)C(=O)c1ccccc1`, the fold change (FC) in [1] was 9.3. In series [2], the inhibition entry was “inactive”. Moreover, the Activity in series [3] is 23.5%; in [5], “Non-toxic”. In addition, the result in series [4] was inactive.

In the case of `CCN(Cc1cccc(C(=O)N(Cc2ccc(CCC(=O)O)cc2)C(C)C)c1)C(=O)c1ccccc1`, the fold change (FC) in [1] came to 5.8. Besides, in series [2], the inhibition entry was “inactive”. The Activity is 11.8% in [3] and “Non-toxic” in series [5]. Further, in [4], the result was inactive.

In [1], `CCN(Cc1ccc(C(=O)N(CC)Cc2ccc(CCC(=O)O)cc2)cc1)C(=O)c1ccccc1` yielded a fold change (FC) of 7.3. In addition, the inhibition result in [2] is “inactive”. For the same compound, the Activity in series [3] was 13.8%; in series [5] it was “Non-toxic”. Also, the outcome in series [4] was inactive.

`CCN(Cc1ccc(CCC(=O)O)cc1)C(=O)c1ccc(CN(C(=O)c2ccccc2)C(C)C)cc1`: the fold change (FC) in series [1] stood at 3.6. For the same compound, the inhibition entry in [2] is “inactive”. The Activity is 6.9% in series [3] and “Non-toxic” in series [5]. Besides, the result in [4] was inactive.

Regarding `CCN(Cc1ccc(CCC(=O)O)cc1)C(=O)c1ccc(CNC(=O)c2ccccc2)cc1`, the fold change (FC) in [1] was 6.2. Further, the inhibition entry in [2] is “inactive”. The Activity in series [3] is 11.8%; in series [5], “Non-toxic”. Moreover, the result in series [4] was inactive.

For the compound `CCN(Cc1cccc(C(=O)N(CC)Cc2ccc(CCC(=O)O)cc2)c1)C(=O)c1ccccc1`, the fold change (FC) in series [6] was over 2; in series [1], 11.2; in [8] it was under 2; in [9], under 2. For the same compound, in [2], the inhibition result was “inactive”. The IC50 (commonly the midpoint of a concentration-inhibition curve) in series [7] was 56.2 µM. In addition, the Activity is 20.9% in series [3] and “Non-toxic” in [5]. Moreover, the outcome in series [4] was inactive.

For `CC(C)N(Cc1cccc(C(=O)N(Cc2ccc(CCC(=O)O)cc2)C(C)C)c1)C(=O)c1ccccc1`, the fold change (FC) in series [1] came out at 5.3. Moreover, the inhibition result in [2] was “inactive”. Besides, the Activity was 10.7% in [3] and “Non-toxic” in series [5]. The outcome in series [4] was inactive.

For the compound `O=C(O)CCc1ccc(CNC(=O)c2ccc(CNC(=O)c3ccccc3)cc2)cc1`, the fold change (FC) in [1] was 2.5. Moreover, in series [2], the inhibition result was “inactive”. Moreover, the Activity in series [3] was 5.4%; in series [5], “Non-toxic”. Besides, the outcome in [4] was inactive.

`CCN(Cc1ccc(CCC(=O)O)cc1)C(=O)c1cccc(CNC(=O)c2ccccc2)c1` returned a fold change (FC) in series [1] of 8.1. The inhibition result in series [2] is “inactive”. Also, the Activity in [3] is 15.1%; in series [5], “Non-toxic”. Moreover, in series [4], the result was inactive.

`CCN(Cc1ccc(C(=O)NCc2ccc(CCC(=O)O)cc2)cc1)C(=O)c1ccccc1` displayed a fold change (FC) in series [1] of 6. In addition, the inhibition result in series [2] was “inactive”. The Activity in series [3] was 13.1%; in series [5] it was “Non-toxic”. The outcome in series [4] was inactive.

As for `O=C(O)CCc1ccc(CNC(=O)c2cccc(CNC(=O)c3ccccc3)c2)cc1`, the fold change (FC) is under 2 in series [6], 5.6 in [1], under 2 in [8] and under 2 in series [9]. Besides, in [2], the inhibition result is “inactive”. This compound displayed an IC50 in [7] of 62.7 µM. The Activity was 14.1% in series [3] and “Non-toxic” in series [5]. Moreover, in series [4], the result was inactive.

With `CC(C)N(Cc1ccc(CCC(=O)O)cc1)C(=O)c1cccc(CNC(=O)c2ccccc2)c1`, the fold change (FC) was under 2 in [6], 13.4 in [1], under 2 in series [8] and 5 in series [9]. Further, the inhibition entry in series [2] is “inactive”. Also, the IC50 in series [7] was 38.7 µM. The Activity in series [3] was 27.2%; in series [5] it was “Non-toxic”. The outcome in series [4] was inactive.

Regarding `CC(C)N(Cc1cccc(C(=O)NCc2ccc(CCC(=O)O)cc2)c1)C(=O)c1ccccc1`, the fold change (FC) in series [1] stood at 7.3. In series [2], the inhibition entry is “inactive”. The Activity was 18.4% in series [3] and “Non-toxic” in series [5]. The outcome in series [4] was inactive.

In [1], `CC(C)N(Cc1ccc(CCC(=O)O)cc1)C(=O)c1ccc(CNC(=O)c2ccccc2)cc1` gave a fold change (FC) of 12.6. The inhibition entry in series [2] is “inactive”. Further, the Activity is 21.2% in series [3] and “Non-toxic” in series [5]. The result in series [4] was inactive.

`CC(C)N(Cc1ccc(C(=O)N(Cc2ccc(CCC(=O)O)cc2)C(C)C)cc1)C(=O)c1ccccc1`: the fold change (FC) in series [1] came to 14.7. Also, in [2], the inhibition entry was “inactive”. The values for the Activity in series [3] and in series [5] were 24.7% and “Non-toxic”, respectively. The outcome in series [4] was inactive.

In [1], `CCN(Cc1ccc(CCC(=O)O)cc1)C(=O)c1cccc(CN(C(=O)c2ccccc2)C(C)C)c1` returned a fold change (FC) of 6.2. Also, the inhibition entry in series [2] is “inactive”. Moreover, the results for the Activity in [3] and in series [5] were 11.6% and “Non-toxic”, respectively. For the same compound, the result in series [4] was inactive.

`CC(C)N(Cc1ccc(C(=O)NCc2ccc(CCC(=O)O)cc2)cc1)C(=O)c1ccccc1`: in [1], the fold change (FC) was found to be 5.7. Moreover, the inhibition entry in [2] is “inactive”. Moreover, the Activity in series [3] is 12.5%; in [5], “Non-toxic”. The outcome in [4] was inactive.
